Source: patent US11440914B2, “Tricyclic amine compounds as CDK2 inhibitors” (Incyte Corporation, priority 2019, dated 2022)

Experiments:
[1] = system: CCNE1-amplified cell lines (OVCAR3, COV318); assay: Cell cycle analysis by FACS in CCNE1-amplified cell lines; format: cell-based, human; conditions: for percentage of S phase cells: 100 nM, 16 hours
Procedure: (§1) The effect of CDK4/6-inhibition in CCNE1-amplified versus CCNE1-non-amplified cell lines was evaluated.
(§2) A similar experiment was performed in a larger set of CCNE1-amplified cell lines (COV318 and OVCAR3) and CCNE1-non-amplified cell lines (COV504, OV56, and Igrov1) (FIG. 6).
To confirm the role of p16 in CDK2-sensitivity of CCNE-amplified cells, COV318 cells were treated with control or p16-specific siRNA.
(§3) Bulk DNA was stained with DAPI. Compound-treated and DMSO treated control cells were acquired with CytoFlex (Beckman Coulter) and were analyzed using the FlowJo software. For cell cycle analysis of cells with siRNA knockdown, 72 hours after siRNA transfection, cells exposed to […] for 3 hours before detection of Click-iT Alexa Fluor® 647 azide kit.

[2] = system: Rb phosphorylated on serine 780 in CCNE1 amplified COV318 cells; assay: CDK2 pRb (S780) HTRF cellular assay; format: cell-based; conditions: Homo sapiens, overnight treatment, read-out: IC50 in p-RB S780 HTRF cellular assay
Procedure: CDK2 pRb ([…]) HTRF cellular assay enables the quantitative detection of Rb phosphorylated on […] in CCNE1 amplified COV318 cells. The assay comprised two antibodies: Europium cryptate labeled anti-Phospho-Rb […] antibody (donor) and d2 labeled anti-Rb antibody (acceptor). In brief, COV318 cells were seeded into the wells of 96-well plate at a density of 25,000 per well with 9-point, 3-fold serial diluted compounds and cultured overnight at 37 degree with 5% CO2. The final concentrations of compounds start from 3 μM. […] After 2 h of incubation at room temperature, HTRF signals were measured on the PHERAstar microplate reader (BMG Labtech), using 340 nm as excitation wavelength, a 620 nm filter for the Europium donor fluorescence, and a 665-nm filter for the acceptor fluorescence detection. HTRF signals were calculated as the HTRF ratio (ratio of fluorescence measured at 665 nm and 620 nm)×10000.

CDK2/Cyclin E1 = CDK2/Cyclin E1 (Homo sapiens (Human), UniProt P24941); assay: CDK2/Cyclin E1 HTRF enzyme activity assay; format: biochemical; conditions: 1 mM ATP
Procedure: CDK2/Cyclin E1 enzyme activity assays utilize full-length human CDK2 co-expressed as N-terminal GST-tagged protein with FLAG-Cyclin E1 in a baculovirus expression system (Carna Product Number 04-165). Assays are conducted in white 384-well polystyrene plates in a final reaction volume of 8 μL. CDK2/Cyclin E1 (0.25 nM) is incubated with compounds (40 nL serially diluted in DMSO) in the presence of ATP (50 μM or 1 mM) and 50 nM ULight™-labeled eIF4E-binding protein 1 (THR37/46) peptide (PerkinElmer) in assay buffer (containing 50 mM HEPES pH 7.5, 1 mM EGTA, 10 mM MgCl2, 2 mM DTT, 0.05 mg/ml BSA, and 0.01% Tween 20) for 60 minutes at room temperature. The reactions are stopped by the addition of EDTA and Europium-labeled anti-phospho-4E-BP1 antibody (PerkinElmer), for a final concentration of 15 mM and 1.5 nM, respectively. HTRF signals are read after 1 hour at room temperature on a PHERAstar FS plate reader (BMG Labtech). Data is analyzed with IDBS XLFit and GraphPad Prism 5.0 software using a three or four parameter dose response curve to determine IC50 for each compound.

[3] = system: CCNE1-non-amplified cell lines (COV504, OV56, Igrov1); assay: Cell cycle analysis by FACS in CCNE1-non-amplified cell lines; format: cell-based, human
Procedure: as §1, §2, §3

[4] = system: Rb phosphorylation at S780 in CCNE1-non-amplified cell lines (COV504 and OV56); assay: Western blot of Rb phosphorylation at S780 in CCNE1-non-amplified cell lines; format: cell-based, human; conditions: various doses, 1 or 15 hours
Procedure: (§4) The effect of CDK4/6-inhibition on Rb phosphorylation at S780 in CCNE1-amplified versus CCNE1-non-amplified cell lines was evaluated. […] One or 15 hours after treatment, the cells were harvested and total protein was extracted and analyzed by western blot (FIG. 8).
(§5) Whole cell extracts were prepared using RIPA buffer (Thermo Scientific, 89900) with a Halt Protease and Phosphatase Inhibitor Cocktail (Thermo Scientific, 78440). Protein concentration was quantified with a BCA Protein Assay Kit (Thermo Scientific, 23225) and […] of protein lysates were loaded for SDS-PAGE using precast gradient gels (Bio-Rad, Hercules, No. 456-1094). Samples were diluted in 5× Laemmli buffer (300 mM Tris-HCl pH 6.8, 10% SDS (w/v), 5% 2-mercaptoethanol, 25% glycerol (v/v), 0.1% bromophenol blue w/v) and boiled for 5 minutes. […] of proteins were separated by 8-15% SDS-PAGE and transferred onto polyvinylidene fluoride (PVDF) membranes. Unspecific binding sites on the PVDF membranes were blocked with 5% non-fat milk in TBST (20 mM Tris-HCl, pH 7.6, 137 mM NaCl, 1% Tween-20). […] Images were captured by Luminescence/Fluorescence Imaging System Odyssey CLx Imager (LI-COR).

[5] = system: Rb phosphorylation at S780 in CCNE1-amplified cell lines (OVCAR3 and COV318); assay: Western blot of Rb phosphorylation at S780 in CCNE1-amplified cell lines; format: cell-based, human; conditions: various doses, 1 or 15 hours
Procedure: as §4, §5

SMILES | percentage of S phase cells ([1]; COV318, control siRNA) | percentage of S phase cells ([1]; COV318, p16 knocked down by siRNA, vs DMSO) | IC50 [2] [µM] | IC50 (CDK2/Cyclin E1) [µM] | percentage of cells at the S phase as compared to DMSO ([3]; COV504, OV56, Igrov1, 16 hours after treatment) | proliferation (cell cycle analysis by FACS) ([3]; COV504 cells, 16 hours, increasing concentrations) | Rb phosphorylation at S780 [4] | Rb phosphorylation at S780 [5] | percentage of cells at the S phase as compared to DMSO ([1]; COV318 and OVCAR3, 16 hours after treatment)
C[C@@]1(O)CCC[C@H]1n1c(=O)ccc2cnc(NC3CCN(S(C)(=O)=O)CC3)nc21 [Compound A, 8-((1R,2R)-2-hydroxy-2-methylcyclopentyl)-2-((1-(methylsulfonyl)piperidin-4-yl)amino)pyrido[2,3-d]pyrimidin-7(8H)-one] | significantly decreased | not significantly decreased | 0.037 |  |  |  |  |  | 
Cc1nc2c(n1C1CC1)-c1nc(N[C@H]3CCN(S(=O)(=O)c4cnn(C)c4)C[C@H]3C)ncc1CC2 [Example 32, 1-Cyclopropyl-2-methyl-N-((3R,4S)-3-methyl-1-((1-methyl-1H-pyrazol-4-yl)sulfonyl)piperidin-4-yl)-4,5-dihydro-1H-imidazo[4,5-h]quinazolin-8-amine] |  |  |  | ≤ 0.05 |  |  |  |  | 
CC(=O)c1c(C)c2cnc(Nc3ccc(N4CCNCC4)cn3)nc2n(C2CCCC2)c1=O [palbociclib] |  |  | > 3 |  | decreased in CCNE1-non-amplified cell lines in a dose-dependent fashion | dose-dependent inhibition of the proliferation | blocked Rb phosphorylation | not in CCNE1-amplified cell lines | not significantly different
